{
  "source": "patent US20160106719A1",
  "about": "“Transplantation Adjuvant in Cell Therapy Using Neural Progenitor Cells” (SUMITOMO DAINIPPON PHARMA CO., LTD., priority 2013, published 2016)",
  "key": {"[1]": {"test_system": "TH+ neurons derived from mouse iPS cells", "experiment": "In vitro survival of TH+ neurons with caspase 3 expression as index of apoptosis", "assay_type": "cell-based", "conditions": "control 18.0±5.9%; no significant difference among four groups", "method": "After the cell sorting, in order to induce the reaggregation of the cells, a PSA-NCAM^+ cell group was seeded in a DMEM/F12 medium (manufactured by Wako Pure Chemical Industries, Ltd.) in a 96-well plate at a concentration (cell density) of 20000 cells/well. The DMEM/F12 medium contained 1% N-2 supplement, 200 nM ascorbic acid, 2% B27 supplement (manufactured by Invitrogen), 0.5 mM L-glutamine and 1% P/S. In order to prevent apoptosis, a ROCK inhibitor, Y-27632 (manufactured by Wako Pure Chemical Industries, Ltd.), was used at a concentration of 30 μM during the cell sorting process and the following overnight cultivation. On day 10 after starting the SFEB, any one of valproic acid (VPA) (manufactured by Sigma-Aldrich), zonisamide (ZNS) sodium salt (manufactured by Sumitomo Dainippon Pharma Co., Ltd.), 17β estradiol (E2) (manufactured by Sigma-Aldrich), a glial cell line derived neurotrophic factor (GDNF) (manufactured by R & D Systems) and PBS(-) was added to the medium for 4 days. Each of VPA, ZNS and E2 was used at three different concentrations. Specifically, the concentration of VPA was 0.01 mM, 0.1 mM or 1 mM, the concentration of ZNS was 1 μM, 10 μM or 100 μM, and the concentration of E2 was 1 nM, 10 nM or 100 nM. GDNF was added at a concentration of […] to be used as a positive control. […]"}, "[2]": {"test_system": "grafts derived from mouse iPS cells", "experiment": "Transplantation experiment of mouse iPS cell-derived dopamine neural progenitor cells into striatum of SD rats (immunohistochemistry of grafts)", "assay_type": "in vivo", "conditions": "four weeks after transplantation", "method": "Ten-week-old Sprague-Dawley rats (SD rats, available from Shimizu Laboratory Supplies Co., Ltd.) were handled in accordance with the Guidelines for Animal Experiments of Kyoto University. Each SD rat was anesthetized, and donor cells were transplanted by stereotaxic injection into striatums on both sides. Two cell aggregates (containing 3.1×10^5 cells on average) obtained on day 9 after starting the SFEB were collected in 1 μl of PBS(-) so as to be used as the donor cells for the transplantation in each tract. To the PBS(-), Y-27632 was added at a final concentration of […]. Thereafter, intraperitoneal injection of VPA (150 mg/kg/day), ZNS sodium salt (30 mg/kg/day), E2 (80 μM/kg/day) or a saline was conducted from two days before transplanting the donor cells until a day of necropsy. For immunosuppression, cyclosporin A (CsA, manufactured by Wako Pure Chemical Industries, Ltd.) was administered to all the SD rats at a daily dose of 10 mg/kg. Four weeks after the transplantation of the donor cells, the brains of the SD rats were washed and fixed by intracardially perfusing 4% paraformaldehyde under deep anesthesia. On the day of necropsy, a blood sample was collected from each SD rat one hour after the final injection of the test compound or CsA. Such a sample was sent to SRL, Inc. (Tokyo, Japan) where the blood concentration of the administered drug (test compound) was measured.\nIn an in vitro experiment, a cell aggregate treated with any of the above-described test compounds on day 14 after starting the SFEB was fixed with 4% paraformaldehyde. Thereafter, the fixed cell aggregate was frozen and sliced into thin sections each having a thickness of 10 μM by using a microtome for immunocytochemistry. On the other hand, in an in vivo experiment (transplantation experiment), the brain of a SD rat or a SCID rat was taken out after the transplantation experiment to be fixed again with 4% paraformaldehyde for 2 days. Thereafter, the fixed brain of the SD rat or SCID rat was cryopreserved in 30% sucrose for 3 days, frozen, and sliced into thin sections each having a thickness of 40 μM for immunohistochemistry. The frozen sections of the sphere (spherical cell mass) and the brain were subjected to a permeabilization and blocking treatment in PBS(-) for 1 hour at room temperature to be used as samples. The PBS(-) contained 0.3% Triton-X and 2% donkey serum. Thereafter, each of the sections was incubated overnight together with a primary antibody at 4° C. Primary antibodies used in this example are a rabbit anti-tyrosine hydroxylase antibody (dilution rate of 1:400, TH; manufactured by Millipore), a mouse anti-TH antibody (dilution rate of 1:200, manufactured by Millipore), a sheep anti-TH antibody (dilution rate of 1:400, manufactured by Millipore), a mouse anti-Tubβ3 antibody (dilution rate of 1:1000, Tuj1; manufactured by Covance Inc.), a rat anti-NURR1 antibody (dilution rate of 1:1000, KAN Research Institute, Inc., Kobe, Japan), a rabbit anti-Ki67 antibody (dilution rate of 1:1000, manufactured by Novocastra: NCL-Ki67p), a rabbit anti-caspase 3 antibody (dilution rate of 1:500, manufactured by Santa Cruz Biotechnology, Inc.), a rat anti-M2M6 antibody (dilution rate of 1:50, manufactured by Developmental Study Hybridoma Bank), a mouse anti-Nestin antibody (dilution rate of 1:50; manufactured by Millipore), a rabbit anti-Pitx3 antibody (dilution rate of 1:500; manufactured by Chemicon International Inc.), a goat […] antibody (dilution rate of 1:500, Foxa2; manufactured by Santa Cruz Biotechnology, Inc.), a mouse anti-human Nuclei antibody (dilution rate of 1:1000; manufactured by Millipore), and a mouse anti-NeuN antibody (dilution rate of 1:500, manufactured by Chemicon International Inc.). After washing with PBS (0.05% Tween-20) three times, the resultant sample was incubated with an Alexa Fluor-conjugated secondary antibody for 1 hour at room temperature. […]"}},
  "data": [
    {"smiles": "CCCC(CCC)C(=O)[O-].[Na+]", "note": "[VPA, sodium 2-propylpentanoate]", "values": [
      {"measurement": "ratio of dopaminergic neurons undergoing apoptosis (TH+ neurons expressing caspase 3)", "setting": "[1]", "result": "low"},
      {"measurement": "volume of graft", "setting": "[2]; VPA 150 mg/kg/day i.p., control 9.76±3.19 mm^3, no significant difference", "result": "4.33±2.14", "unit": "mm^3"},
      {"measurement": "ratio of NeuN+ cells to the number of all the cells in a graft", "setting": "[2]; VPA 150 mg/kg/day i.p., control 57.7±9.4%", "result": "77.9±5.1", "unit": "%"},
      {"measurement": "number of TH+ cells in a graft", "setting": "[2]; VPA 150 mg/kg/day i.p., control 393±311 cells", "result": "1396±864", "unit": "cells"},
      {"measurement": "ratio of TH+ cells that were FOXA2+", "setting": "[2]; VPA 150 mg/kg/day or ZNS 30 mg/kg/day i.p., control 24.7±9.3%", "result": "81.8±33.6", "unit": "%"},
      {"measurement": "number of midbrain dopaminergic neurons (TH+ FOXA2+) in a graft", "setting": "[2]; VPA 150 mg/kg/day or ZNS 30 mg/kg/day i.p., control 97±76 cells", "result": "984±770", "unit": "cells"}
    ]}
  ]
}
